From ChEMBL document CHEMBL1141918 (Bioorg Med Chem Lett, 2005) come the findings set out here.

SMILES strings stand for the structures. pKi: −log10 of the molar value.

For test [1], the target named is Carbonic anhydrase 2 (Homo sapiens, UniProt P00918).
Test [2] addresses Carbonic anhydrase 1 (Homo sapiens, UniProt P00915).
Test [3] addresses Carbonic anhydrase 9 (Homo sapiens, UniProt Q16790).
Test [4] addresses Carbonic anhydrase 4 (Homo sapiens, UniProt P22748).
Test [5] concerns the target Carbonic anhydrase 5A, mitochondrial (Homo sapiens, UniProt P35218).

Carbonic anhydrase 4, sequence (P22748 whole entry): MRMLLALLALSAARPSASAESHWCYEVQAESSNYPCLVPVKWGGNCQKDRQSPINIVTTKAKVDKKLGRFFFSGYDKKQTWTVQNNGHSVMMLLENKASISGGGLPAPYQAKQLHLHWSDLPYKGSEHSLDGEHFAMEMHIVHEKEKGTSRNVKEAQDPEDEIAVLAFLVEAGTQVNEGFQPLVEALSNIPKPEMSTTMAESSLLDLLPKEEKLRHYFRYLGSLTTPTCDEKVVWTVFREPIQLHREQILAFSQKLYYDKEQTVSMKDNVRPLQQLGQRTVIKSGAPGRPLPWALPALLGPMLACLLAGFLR
Carbonic anhydrase 5A, mitochondrial, sequence (P35218 whole entry): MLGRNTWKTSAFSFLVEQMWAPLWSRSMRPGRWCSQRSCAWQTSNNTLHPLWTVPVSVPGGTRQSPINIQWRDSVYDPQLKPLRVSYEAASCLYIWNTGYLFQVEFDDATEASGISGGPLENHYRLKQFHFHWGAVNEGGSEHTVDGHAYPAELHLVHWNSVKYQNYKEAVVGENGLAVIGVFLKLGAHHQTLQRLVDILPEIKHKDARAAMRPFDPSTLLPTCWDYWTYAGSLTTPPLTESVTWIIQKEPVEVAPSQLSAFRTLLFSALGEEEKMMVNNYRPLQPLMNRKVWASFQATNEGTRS
Carbonic anhydrase 1, sequence (P00915 whole entry): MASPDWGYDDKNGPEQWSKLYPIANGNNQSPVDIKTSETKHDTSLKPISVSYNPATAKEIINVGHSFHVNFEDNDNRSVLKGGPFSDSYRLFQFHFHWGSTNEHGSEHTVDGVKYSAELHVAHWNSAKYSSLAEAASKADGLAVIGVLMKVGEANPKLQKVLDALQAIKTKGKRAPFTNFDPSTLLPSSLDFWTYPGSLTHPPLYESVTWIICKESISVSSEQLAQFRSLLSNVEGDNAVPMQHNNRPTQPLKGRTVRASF

As usually defined, the pKi is −log10 of the Ki, conventionally taken in molar units. Read a high pKi as a small Ki. As to `F[P-](F)(F)(F)(F)F.[Na+]`, the pKi in test [1] is 1.76; in test [2] it was 1.96; in test [3], 2.09; in test [4], 1.72; in test [5] it was < 0.52.
